One test relates to A2780. Kind of test: Concentration required to inhibit 50% of human carcinoma A2780 cell lines. It counts as functional, cell-based.
The target of test [1] is Telomerase reverse transcriptase (Homo sapiens, UniProt O14746). Briefly: Concentration required to inhibit 50% of telomerase activity.
The nature of test [2]: Concentration required to inhibit 50% of human carcinoma CH1 cell lines. It counts as functional, cell-based.
The subject of the next test is SK-OV-3. Briefly: Concentration required to inhibit 50% of human carcinoma SKOV3 cell lines. Type of test: functional, cell-based.

Where only a bound is given, the exact number is not on record here.

Chain of Telomerase reverse transcriptase (O14746 whole entry): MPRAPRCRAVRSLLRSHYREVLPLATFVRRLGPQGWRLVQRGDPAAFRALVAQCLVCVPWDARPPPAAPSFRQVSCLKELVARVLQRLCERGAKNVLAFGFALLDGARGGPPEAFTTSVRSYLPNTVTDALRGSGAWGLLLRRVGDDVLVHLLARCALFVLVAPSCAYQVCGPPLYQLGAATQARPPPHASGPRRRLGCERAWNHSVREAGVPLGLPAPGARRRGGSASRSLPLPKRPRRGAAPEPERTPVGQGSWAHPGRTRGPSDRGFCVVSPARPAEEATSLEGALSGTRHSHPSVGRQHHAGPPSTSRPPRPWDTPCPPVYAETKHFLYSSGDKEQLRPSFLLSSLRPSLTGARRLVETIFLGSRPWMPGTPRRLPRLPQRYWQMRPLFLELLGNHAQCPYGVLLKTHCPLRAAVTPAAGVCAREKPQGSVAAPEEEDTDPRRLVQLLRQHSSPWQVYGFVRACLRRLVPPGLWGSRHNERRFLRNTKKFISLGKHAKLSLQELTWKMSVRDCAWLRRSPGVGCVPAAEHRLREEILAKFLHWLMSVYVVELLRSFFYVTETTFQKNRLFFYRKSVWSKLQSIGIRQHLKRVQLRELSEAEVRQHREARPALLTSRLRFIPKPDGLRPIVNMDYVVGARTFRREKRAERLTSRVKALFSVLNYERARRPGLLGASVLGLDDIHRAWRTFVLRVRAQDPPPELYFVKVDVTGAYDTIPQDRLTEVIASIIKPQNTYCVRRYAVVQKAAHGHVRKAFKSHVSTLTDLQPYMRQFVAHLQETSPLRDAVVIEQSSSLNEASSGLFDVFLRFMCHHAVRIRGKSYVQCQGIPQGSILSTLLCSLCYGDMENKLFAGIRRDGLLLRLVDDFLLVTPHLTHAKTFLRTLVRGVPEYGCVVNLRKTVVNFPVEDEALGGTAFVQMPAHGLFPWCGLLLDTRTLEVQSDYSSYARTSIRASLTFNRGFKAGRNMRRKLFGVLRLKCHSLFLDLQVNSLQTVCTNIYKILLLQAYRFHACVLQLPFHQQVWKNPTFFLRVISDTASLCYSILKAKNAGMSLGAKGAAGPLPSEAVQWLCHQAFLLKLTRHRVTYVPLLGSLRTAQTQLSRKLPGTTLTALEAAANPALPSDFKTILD

On to `O=C(CCN1CCCCC1)Nc1ccc2nc3ccc(NC(=O)CCN4CCCCC4)cc3c(O)c2c1`, for which the IC50 (with A2780; in test [2]; with SK-OV-3) was > 25 µM in each case. Besides, the midpoint of the response in test [1], the EC50, lay at 1900 nM.

As to `CC[n+]1c(-c2ccccc2)c2cc(N)ccc2c2ccc(N)cc21` [HOMIDIUM BROMIDE], the IC50 (as a rule, the midpoint of a concentration-inhibition curve) with A2780 was 0.1 µM; in test [2], 0.4 µM; in the test on SK-OV-3 it was 4.5 µM.

For `CC1CCCCN1CCC(=O)Nc1ccc2c(O)c3ccc(NC(=O)CCN4CCCCC4C)cc3nc2c1` (centres undefined), the IC50 was 13 µM with A2780, 11 µM in test [2] and 10.5 µM in the test with SK-OV-3. For the same compound, in test [1], the EC50 – broadly, the midpoint of the concentration-response curve – was 2300 nM.

In the case of `CCN(CC)CCC(=O)Nc1ccc2c(O)c3ccc(NC(=O)CCN(CC)CC)cc3nc2c1`, the IC50 (with A2780; in test [2]; in the test with SK-OV-3) was > 25 µM in each case. The compound also displayed an EC50 in test [1] of 5700 nM.

`CC1CCCCN1CCC(=O)Nc1ccc2nc3ccc(NC(=O)CCN4CCCCC4C)cc3c(O)c2c1` (centres undefined): the IC50 (in the test with A2780; in test [2]; in the test on SK-OV-3) was > 25 µM each time. Also, in test [1], the midpoint of the response, the EC50, lay at 2300 nM.

`CC1CCN(CCC(=O)Nc2ccc3c(O)c4ccc(NC(=O)CCN5CCC(C)CC5)cc4nc3c2)CC1`: the IC50 stood at 3 µM with A2780, 3 µM in test [2] and 5.6 µM in the test on SK-OV-3. In test [1], a half-maximal response (EC50) required 1700 nM.

Turning to `c1cc2cc3ccc(N4CCCCC4)cc3nc2cc1N1CCCCC1`, the IC50 worked out at 1.7 µM in the test on A2780, 2.3 µM in test [2] and 0.5 µM in the test with SK-OV-3. Moreover, the EC50 in test [1] is 2800 nM.

`O=C(CCN1CCCC1)Nc1ccc2c(O)c3ccc(NC(=O)CCN4CCCC4)cc3nc2c1`: the IC50 (in the test with A2780; in test [2]; in the test with SK-OV-3) was > 25 µM each time. This compound also yielded an EC50 in test [1] of 8100 nM.

For the compound `O=C(CCN1CCC(O)CC1)Nc1ccc2c(O)c3ccc(NC(=O)CCN4CCC(O)CC4)cc3nc2c1`, the IC50 (in the test with A2780; in test [2]; in the test with SK-OV-3) was > 25 µM in each case. The same compound displayed an EC50 in test [1] of 1700 nM.

For the compound `O=C(CCN1CCCC1)Nc1ccc2nc3ccc(NC(=O)CCN4CCCC4)cc3c(O)c2c1`, the IC50 (in the test with A2780; in test [2]; in the test on SK-OV-3) was > 25 µM throughout. In test [1], the EC50 stood at 5800 nM.

`CCN(CC)CCC(=O)Nc1ccc2c(O)c3cc(NC(=O)CCN(CC)CC)ccc3nc2c1`: the IC50 amounted to 16 µM in the test with A2780, 25 µM in test [2] and 25 µM with SK-OV-3. Moreover, in test [1], the EC50 worked out at 700 nM.

As to `CCN1CCN(CCC(=O)Nc2ccc3c(O)c4ccc(NC(=O)CCN5CCN(CC)CC5)cc4nc3c2)CC1`, the values for the IC50 (in the test with A2780; in test [2]; with SK-OV-3) were 11.8 µM, 11 µM and 10.5 µM, respectively. In test [1], a half-maximal response (EC50) required 1900 nM.

Turning to `O=C(CCN1CCCCC1)Nc1ccc2c(O)c3ccc(NC(=O)CCN4CCCCC4)cc3nc2c1`, the IC50 with A2780 is 19 µM; in test [2], 13 µM; in the test on SK-OV-3, 21 µM. Also, the EC50 in test [1] is 5900 nM.

For the compound `O=C(CCN1CCCCC1CO)Nc1ccc2c(O)c3cc(NC(=O)CCN4CCCCC4CO)ccc3nc2c1` (centres undefined), the values for the IC50 (with A2780; in test [2]; in the test on SK-OV-3) were 11.2 µM, 25 µM and 25 µM, respectively. In test [1], this compound had an EC50 of 200 nM.

Consider `CN1CCN(CCC(=O)Nc2ccc3nc4ccc(NC(=O)CCN5CCN(C)CC5)cc4c(O)c3c2)CC1`, for which the IC50 (with A2780; in test [2]; in the test with SK-OV-3) was > 25 µM each time. The compound further returned a 50% effective concentration (EC50) in test [1] of 1900 nM.

For `CCN(CC)c1ccc2cc3ccc(N(CC)CC)cc3nc2c1`, the IC50 was determined as 0.6 µM with A2780, 2.5 µM in test [2] and 2.3 µM with SK-OV-3. The compound also came in with an EC50 in test [1] of 5800 nM.

For the compound `c1cc2cc3ccc(N4CCCC4)cc3nc2cc1N1CCCC1`, the results for the IC50 (in the test with A2780; in test [2]; in the test with SK-OV-3) were 27 µM, 8.2 µM and 2.6 µM, respectively. In addition, a half-maximal response in test [1] (EC50) required 5200 nM.

Regarding `O=C(CCN1CCOCC1)Nc1ccc2c(O)c3ccc(NC(=O)CCN4CCOCC4)cc3nc2c1`, the IC50 (in the test with A2780; in test [2]; in the test with SK-OV-3) was > 25 µM in each case. The same compound returned an EC50 in test [1] of 4900 nM.

As for `CN(C)CCC(=O)Nc1ccc2nc3ccc(NC(=O)CCN(C)C)cc3c(O)c2c1`, the IC50 (in the test on A2780; in test [2]; in the test on SK-OV-3) was > 25 µM in each case. In test [1], this compound registered an EC50 of 600 nM.

Take `O=C(CCN1CCC(O)CC1)Nc1ccc2c(O)c3cc(NC(=O)CCN4CCC(O)CC4)ccc3nc2c1`: the figures for the IC50 (in the test on A2780; in test [2]; in the test on SK-OV-3) were 3.5 µM, 25 µM and 25 µM, respectively. This compound also registered an EC50 in test [1] of 200 nM.

Regarding `CN(C)CCC(=O)Nc1ccc2c(O)c3ccc(NC(=O)CCN(C)C)cc3nc2c1`, the IC50 (in the test with A2780; in test [2]; in the test on SK-OV-3) was > 25 µM throughout. Besides, in test [1], it took 4300 nM to reach a half-maximal effect (EC50).

As to `CC1CCN(CCC(=O)Nc2ccc3c(O)c4cc(NC(=O)CCN5CCC(C)CC5)ccc4nc3c2)CC1`, the IC50 was > 25 µM in the test with A2780, 25 µM in test [2] and 25 µM with SK-OV-3. In test [1], this compound yielded an EC50 of 200 nM.

`CCC1CCCCN1CCC(=O)Nc1ccc2c(O)c3ccc(NC(=O)CCN4CCCCC4CC)cc3nc2c1` (centres undefined): the IC50 in the test on A2780 worked out at 13 µM; in test [2] it was 11.8 µM; in the test with SK-OV-3, 12 µM. For the same compound, the response in test [1] was half-maximal at 2300 nM (EC50).

`O=C(CCN1CCC(O)CC1)Nc1ccc2nc3ccc(NC(=O)CCN4CCC(O)CC4)cc3c(O)c2c1`: the half-inhibitory concentration (IC50) (in the test on A2780; in test [2]; in the test on SK-OV-3) was > 25 µM throughout. The EC50 in test [1] is 2300 nM.

For the compound `O=C(CCN1CCCCC1)Nc1ccc2c(O)c3cc(NC(=O)CCN4CCCCC4)ccc3nc2c1`, the IC50 was found to be 5.6 µM with A2780, 25 µM in test [2] and 25 µM in the test on SK-OV-3. In test [1], this compound showed an EC50 of 400 nM.

Source of the values: ChEMBL document CHEMBL1137062, “Evaluation of by disubstituted acridone derivatives as telomerase inhibitors: the importance of G-quadruplex binding” (Bioorg Med Chem Lett, 2004).
